In patent US9663454B2, “3-aryl propiolonitrile compounds for thiol labeling” (Universite de Strasbourg, priority 2013, dated 2017):
Entries after “also recorded” stand apart in the source; their conditions may differ. Marks after values point to notes of the source that are not given here. Blank lines part the entries; values can stand above or below the molecule they belong to.

Tests used:
[1] = Labeling of a cysteine derivative: conversion of arylpropiolonitriles 1-12 with AcCysNHBn, HPLC; conditions: 50 μM of each reagent, 25° C., PBS pH 7.6
Description: To a vial containing 985 μL of PBS (1×, pH 7.6), were subsequently added 5 μL of the stock solution of benzamide (10 mM in water), 5 μL of the stock solution of arylpropiolonitrile (1-12, 10 mM in DMSO) and 5 μL of stock solution of AcCysNHBn (7 m, 10 mM in DMSO). […] Areas under the peaks of the starting materials and hydrolysis products were normalized according to the area of the peak of the internal standard.
Obtained results are summed up in table 2 below, which presents the conversion of the compounds 1-12 in 30 minutes in presence of 7m at 50 μM concentration of each reagent and 25° C. The reaction is extremely sensitive to steric hindrances induced by substituents in ortho-position to propiolonitrile group (entries 1, 5, 8-9, 4) as well as to electronic effect of the substituent: −I and −M substituents increase (entries 10 and 12), while +M substituents decrease the reactivity of the compound (entries 3 and 7).

[2] = Hydrolytic stability in PBS, HPLC monitoring; format: physicochemical
Description: FIG. 3a-3b: HPLC monitoring of the hydrolysis of phenylmaleimide (2) in PBS (1×, pH 7.6) at 1 mM concentration at 25° C.; the peaks correspond, from the earliest to the latest, to
[drawing 5] conversion was monitored by disappearance of the starting material (a). Pseudo first order rate constant for the reaction was determined by plotting the ln([phenylmaleimide]) versus time and analyzing by linear regression. The constant corresponds to the absolute value of determined slope (b).
FIG. 4: HPLC monitoring of hydrolytic stability of N-(4-(cyanoethynyl)phenyl)acetamide (pNHAc-APN, 11) in PBS (1×, pH 7.6) at 1 mM concentration at 25° C. Conversion was monitored by disappearance of the starting material; the peaks correspond, from the earliest to the latest, to
To a vial containing 980 μL of PBS (1×, pH 7.6), were subsequently added 10 μL of a stock solution of benzamide and 10 μL of a stock solution of electrophile (phenylmaleimide 1 or
[drawing 112] 11) to give final concentration of 1 mM (both internal standard and electrophile). Aliquots of the reaction mixture (50 μL) were analyzed by HPLC for 5 hours of hydrolysis (injection every 30 min). Areas under the peaks of the starting materials and hydrolysis products were normalized according to the area of the peak of the internal standard.

[3] = test system: Trastuzumab; assay: Conjugation of Trastuzumab and TAMRA-SH via linker, SDS-PAGE and native ESI-MS
Description: To the solution of Trastuzumab (100 uL, 10 mg/mL in 50 mM borate buffer pH 8.5) was added 1.74 uL of the solution of 18 (10 mg/mL in DMSO). After incubation for 1 h at 25° C. was added 0.69 uL of TAMRA-SH (100 mM in DMSO). The mixture was incubated at 25° C. for 16 h and the conjugate was purified by size exclusion chromatography.
The comparison experiment was carried out using 4-(N-maleimidomethyl)cyclohexanecarboxylic acid N-hydroxysuccinimide ester (SMCC) instead of 18.

[4] = test system: Trastuzumab; assay: Rebridging of antibody fragments, SDS-PAGE in reducing conditions; conditions: Trastuzumab reduced with 5 eq. TCEP, 15 eq. compound, 16 h at 25° C.
Description: To the solution of Trastuzumab (100 uL, 10 mg/mL in 50 mM PBS pH 7.4 with 10 mM of EDTA) was added the solution of TCEP (10 mM in water, 5 eq.). The mixture was incubated at 37° C. for 2 h and then the solution of 33 or 34 (10 mM in DMSO, 15 eq.) was added. The resulting solution was incubated for 16 h at 25° C. and then analyzed by SDS-PAGE in reducing conditions.

[5] = test system: partially reduced Trastuzumab; assay: Direct conjugation to partially reduced Trastuzumab, SDS-PAGE and ESI-MS
Description: To the solution of Trastuzumab (100 uL, 10 mg/mL in 50 mM PBS pH 7.4 with 10 mM of EDTA) was added the solution of TCEP (10 mM in water, 1.1 or 2.2 eq.). The mixture was incubated at 37° C. for 2 h and then the solution of 58 (8.25 μL, 10 mM in DMSO) was added. The mixture was incubated at 25° C. for 16 h and the conjugate was purified by size exclusion chromatography.

[6] = Stability of the addition product in different working solutions, HPLC; format: physicochemical; conditions: for Conversion of “addition product” in 1 h: 100 μM, 25° C.
Description: A 100 mM stock solution of the “addition product”
[drawing 113] was prepared in DMSO and stored at −20° C. 1 μL of the stock solution was added to 999 μL of working solutions to give 100 μM final concentration of substrate. Aliquots were analyzed at 0, 30 and 60 min. Areas under peak of starting material were normalized according to the area of the peak of the internal standard (benzamide). All measurements were carried at 25° C.

[7] = Selectivity screening of electrophiles on amino acid benzylamides, HPLC; conditions: in 1 hour in PBS (1×, pH 7.6) in presence of the electrophile, 1 mM reagents
Description: (§1) Screening for selectivity was done on benzylamides of non-protected amino acids. 100 mM stock solutions of benzylamides of amino acids (in form of TFA salts) and electrophiles (phenylpropiolonitrile and phenylmaleimide) were prepared in DMSO and stored at −20° C. A 100 mM stock solution of benzamide (used as an internal standard) was prepared in distilled water and stocked at −20° C. Analyses of reaction mixtures were conducted with Shimadzu LC with SunFire™ C18 5 μM 4.6×150 mm column (Waters). HPLC parameters were as follows: flow rate 1 mL/min, gradient from 5 to 95% of mobile phase B from 0 to 20 min, followed by 5 min at 95% of mobile phase and post time of 5 min. Mobile phase A was 0.05% TFA in water (mQ) (v/v), and mobile phase B was acetonitrile (HPLC grade). Data were analyzed using Shimadzu analysis software. Signals were normalized according to the area of the peak of the internal standard (benzamide). Areas under the peaks of the amino acid benzylamides were used to calculate their conversion during reaction.
10 μL of the stock solution of amino acid benzamide and 2.5 μL of the stock solution of benzamide were added to a vial containing 977.5 μL of PBS (1×, pH 7.6). The solution was stirred and 10 μL of the stock solution of electrophile were added to give 1 mM final concentrations of reagents and 0.25 mM concentration of benzamide. Aliquots of the reaction mixture (50 μL) were analyzed by HPLC for 1 hour of hydrolysis (injections at 0, 30 and 60 min). Areas under the peaks of the starting materials and hydrolysis products were normalized according to the area of peak of the internal standard. In case of phenylpropiolonitrile, none of amino acid models gave more than 1.6% conversion (see table 3 below). […] Masses of corresponding adducts were detected by mass spectrometry (ESI-LCMS) in some cases (shown in bold, Table 4).

[8] = Selectivity screening of electrophiles, whole panel of amino acid models; conditions: 1 hour, PBS (1×, pH 7.6), 1 mM reagents
Description: as §1, with “Areas under the peaks of the amino acid benzylamides were used to calculate their conversion during reaction.” left out
10 μL of the stock solution of amino acid benzamide and 2.5 μL of the stock solution of benzamide were added to a vial containing 977.5 μL of PBS (1×, pH 7.6). […] Aliquots of the reaction mixture (50 μL) were analyzed by HPLC for 1 hour of hydrolysis (injections at 0, 30 and 60 min). […] Masses of corresponding adducts were detected by mass spectrometry (ESI-LCMS) in some cases (shown in bold, Table 4).

[9] = conversion of the compound in 30 minutes in presence of 7m
[10] = conversion in 60 minutes in presence of 7m

- hydrolyzed ([2]; after 1 h in buffer solution): approximately 25%
Compound: COc1ccccc1C#CC#N [Compound 1, 3-(2-Methoxyphenyl)propiolonitrile]
- Conversion [1, 9]: 10.1%
- kobs (pseudo first order rate constant of hydrolysis) ([2]; PBS (1×, pH 7.6), 1 mM, 25° C.): 7e-05 s⁻¹

Compound: COc1cccc(C#CC#N)c1 [Compound 2, 3-(3-Methoxyphenyl)propiolonitrile]
- Conversion [1, 9]: 46.8%

Compound: COc1ccc(C#CC#N)cc1 [Compound 3, 3-(4-Methoxyphenyl)propiolonitrile]
- Conversion [1, 9]: 14.6%

Compound: COc1cccc(OC)c1C#CC#N [Compound 4, 3-(2,6-Dimethoxyphenyl)propiolonitrile]
- Conversion [1, 10]: 4.8%**

Compound: N#CC#Cc1ccccc1N [Compound 5, 3-(2-Aminophenyl)propiolonitrile]
- Conversion [1, 9]: 10.8%

Compound: N#CC#Cc1cccc(N)c1 [Compound 6, 3-(3-Aminophenyl)propiolonitrile]
- Conversion [1, 9]: 42.0%

Compound: N#CC#Cc1ccc(N)cc1 [Compound 7, 3-(4-Aminophenyl)propiolonitrile]
- Conversion [1, 9]: 7.4%

Compound: Cc1ccccc1C#CC#N [Compound 8, 3-(o-Tolyl)propiolonitrile]
- Conversion [1, 9]: 10.3%

Compound: Cc1cccc(C)c1C#CC#N [Compound 9, 3-(2,6-Dimethylphenyl)propiolonitrile]
- Conversion [1, 10]: 2.3%**

Compound: N#CC#Cc1ccccc1[N+](=O)[O-] [Compound 10, 3-(2-Nitrophenyl)propiolonitrile]
- Conversion [1, 9]: 70.4%*

Compound: CC(=O)Nc1ccc(C#CC#N)cc1 [Compound 11, N-(4-(Cyanoethynyl)phenyl)acetamide]
- Conversion [1, 9]: 52.3%
- hydrolysis (in words) ([2]; PBS (1×, pH 7.6), 1 mM, 25° C., up to 5 hours of monitoring): no hydrolysis could be detected; also recorded: No detectable conversion; also recorded: no detectable change in concentration
- hydrolysis (in words) ([2]; after a week at room temperature): no trace of hydrolyzed product could be detected

Compound: CNC(=O)c1ccc(C#CC#N)cc1 [Compound 12, 4-(Cyanoethynyl)-N-methylbenzamide]
- Conversion [1, 9]: 85.5%

Compound: N#CC#Cc1ccc(C(=O)Oc2c(F)c(F)c(S(=O)(=O)O)c(F)c2F)cc1 [Compound 18, Sodium 4-((4-(cyanoethynyl)benzoyl)oxy)-2,3,5,6-tetrafluorobenzenesulfonate]
- level of conjugation (in words) ([3]; SDS-PAGE, Trastuzumab + TAMRA-SH, versus SMCC): higher levels of conjugation comparing to SMCC
- molecules of TAMRA conjugated per antibody, in average ([3]; native ESI-MS of the conjugate): one
- population of conjugates (in words) ([3]; native ESI-MS of the conjugate): cleaner population of conjugates

Compound: N#CC#Cc1ccccc1C#CC#N [Compound 33, 3,3′-(1,2-Phenylene)dipropiolonitrile]
- bridging of antibody fragments (in words) [4]: successfully bridged

Compound: N#CC#Cc1cccc(C#CC#N)c1 [Compound 34, 3,3′-(1,3-Phenylene)dipropiolonitrile]
- bridging of antibody fragments (in words) [4]: successfully bridged

Compound: CN(C)c1ccc2c(-c3cc(C(=O)NCc4cn(-c5ccc(C#CC#N)cc5)nn4)ccc3C(=O)[O-])c3ccc(=[N+](C)C)cc-3oc2c1 [Compound 58, 4-(((1-(4-(cyanoethynyl)phenyl)-1H-1,2,3-triazol-4-yl)methyl)carbamoyl)-2-(6-(dimethylamino)-3-(dimethyliminio)-3H-xanthen-9-yl)benzoate]
- molecules conjugated per antibody, in average ([5]; ESI-MS, 2.2 eq. of TCEP): 4
- attachment to the antibody (in words) ([5]; SDS-PAGE of the conjugates): covalently attached to the antibody

Compound: O=C(ON1C(=O)CCC1=O)C1CCC(CN2C(=O)C=CC2=O)CC1 (stereo not drawn) [SMCC, 4-(N-maleimidomethyl)cyclohexanecarboxylic acid N-hydroxysuccinimide ester, reference compound]
- population of conjugates (in words) ([3]; native ESI-MS of the conjugate): complex mixture of undistinguishable species

- Conversion of “addition product” in 1 h ([6]; 100 mM PhSH in PBS(7.4):DMSO = 80:20): 0.7%
- Conversion of “addition product” in 1 h ([6]; 1M Glutathione reduced (GSH) in PBS (7.4)): 0.4%
- Conversion of “addition product” in 1 h ([6]; 1M H2O2): 1.8%
- Conversion of “addition product” in 1 h ([6]; 1M HCl (pH = 0)): 0.1%
- Conversion of “addition product” in 1 h ([6]; 1M Imidazole in PBS (7.4)): 0.5%
- Conversion of “addition product” in 1 h ([6]; 1M NaOH (pH = 14)): 3.4%
Compound: N#CC=C(SCC(N)C(=O)NCc1ccccc1)c1ccccc1 (stereo not drawn) [addition product]
- thiol exchange (in words) ([6]; 1 hour with an excess of phenylthiol or glutathione): no exchange product could be observed; also recorded: hardly any thiol exchange is observed
- stability (in words) ([6]; wide range of conditions, pH from 0 to 14): stable in a wide range of pH (from 0 to 14); also recorded: stable and undergoes very little degradation in a wide range of conditions

Compound: N#CC#Cc1ccccc1 [phenylpropiolonitrile]
- Conversion of AlaNHBn (7c) [7]: 0.1%
- Conversion of ArgNHBn (7k) [7]: 0.4%
- Conversion of AspNHBn (7l) [7]: 0.6%
- Conversion of CysNHBn (7a) [7]: 98%
- Conversion of GlnNHBn (7i) [7]: 0.1%
- Conversion of GlyNHBn (7b) [7]: 0.2%
- Conversion of HisNHBn (7h) [7]: 0.6%
- Conversion of MetNHBn (7f) [7]: 0.1%
- Conversion of SerNHBn (7e) [7]: 0.3%
- Conversion of TrpNHBn (7j) [7]: 1.3%
- Conversion of TyrNHBn (7g) [7]: 1.6%
- Conversion of ValNHBn (7d) [7]: 0.7%
- highest conversion among the amino acid models other than cysteine [8]: ≤ 1.6%
